From EP0377044B1, “PROTECTIVE AGENT FOR RADIATION HAZARD” (MITSUI TOATSU CHEMICALS, Inc., priority 1988, dated 1989)
Square brackets hold non-standard residues; d marks the D form. Peptide text beside a SMILES is read from it. pGlu = O=C1CC[C@@H](C(=O)O)N1

Tests used:
[1] = system: mice irradiated with 800R X-rays; assay: Survival of mice after whole body irradiation with 800R X-rays; format: in vivo, C3H/He mice; details: for The number of days and survivals after X-radiation 10 (days) / The number of days and survivals after X-radiation 11 (days) / The number of days and survivals after X-radiation 12 (days) / The number of days and survivals after X-radiation 13 (days) / The number of days and survivals after X-radiation 14 (days) / The number of days and survivals after X-radiation 15 (days) / The number of days and survivals after X-radiation 16 (days) / The number of days and survivals after X-radiation 17 (days) / The number of days and survivals after X-radiation 18 (days) / The number of days and survivals after X-radiation 19 (days) / The number of days and survivals after X-radiation 20 (days) / The number of days and survivals after X-radiation 25 (days) / The number of days and survivals after X-radiation 30 (days): 14 days; for The number of days and survivals after X-radiation 10 (days): day 10, 15 animals used; for The number of days and survivals after X-radiation 11 (days): day 11, 15 animals used; for The number of days and survivals after X-radiation 12 (days): day 12, 15 animals used; for The number of days and survivals after X-radiation 13 (days): day 13, 15 animals used; for The number of days and survivals after X-radiation 14 (days): day 14, 15 animals used; for The number of days and survivals after X-radiation 15 (days): day 15, 15 animals used; for The number of days and survivals after X-radiation 16 (days): day 16, 15 animals used; for The number of days and survivals after X-radiation 17 (days): day 17, 15 animals used; for The number of days and survivals after X-radiation 18 (days): day 18, 15 animals used; for The number of days and survivals after X-radiation 19 (days): day 19, 15 animals used; for The number of days and survivals after X-radiation 20 (days): day 20, 15 animals used; for The number of days and survivals after X-radiation 25 (days): day 25, 15 animals used; for The number of days and survivals after X-radiation 30 (days): day 30, 15 animals used
Method: (§1) Male, 10 week-old C3H/He mice were used and groups of 10 - 15 animals each were prepared.
(§2) The mice were subjected to whole body irradiation for 8 minutes using a X-radiation unit (manufactured by Shimazu Seisaku-sho, Shin-Ai 250 II). These animals received, once per day, subcutaneous administration of 100 µg of FTS·CH₃COOH·2H₂O as used in Example 1 for consecutive 14 days. For a pre-administered group, the administration started two days before the irradiation. For a post-administered group, the first administration was effected immediately after the irradiation. As control groups, one group which received only once subcutaneous administration of 1 KE of Picibanil immediately after the irradiation and another group which received every day administration of physiological saline were prepared.

[2] = system: mice irradiated with 600R X-rays; assay: Survival of mice after whole body irradiation with 600R X-rays; format: in vivo
Method: as §1, §2
In the same manner as in Experimental Examples 1 and 2, mice were irradiated with X-rays for 6 minutes. For a period of consecutive 14 days from 2 days before irradiation, the animals were subcutaneously administered, once a day, with 100 µg/day of FTS·CH₃COOH·2H₂O as medicament.

[3] = post-administration 100 µg s.c. once per day, from immediately after irradiation
[4] = pre-administration 100 µg s.c. once per day, from two days before irradiation

C[C@H](NC(=O)[C@@H]1CCC(=O)N1)C(=O)N[C@@H](CCCCN)C(=O)N[C@@H](CO)C(=O)N[C@@H](CCC(N)=O)C(=O)NCC(=O)NCC(=O)N[C@@H](CO)C(=O)N[C@@H](CC(N)=O)C(=O)O [medicament, pGlu-Ala-Lys-Ser-Gln-Gly-Gly-Ser-Asn] ([pGlu]AKSQGGSN-OH) was tested, and the “dying of mice due to irradiation” value ([1]; 100 µg s.c. once per day for 14 days, summary of Table 1) was “clearly prevents or inhibits the dying of mice due to irradiation”, the “The number of days and survivals after X-radiation 10 (days)” value (“The number … after X-radiation 10 (days)” for short) [1, 3] was 15 and the “The number of days and survivals after X-radiation 11 (days)” value (“The number … after X-radiation 11 (days)” for short) [1, 3] was 15. For the same compound, the “The number of days and survivals after X-radiation 12 (days)” value (“The number … after X-radiation 12 (days)” for short) [1, 3] was 15, the “The number of days and survivals after X-radiation 13 (days)” value (“The number … after X-radiation 13 (days)” for short) [1, 3] was 14 and the “The number of days and survivals after X-radiation 14 (days)” value (“The number … after X-radiation 14 (days)” for short) [1, 3] was 13. The “The number of days and survivals after X-radiation 15 (days)” value (“The number … after X-radiation 15 (days)” for short) [1, 3] was 10, the “The number of days and survivals after X-radiation 16 (days)” value (“The number … after X-radiation 16 (days)” for short) [1, 3] was 8 and the “The number of days and survivals after X-radiation 17 (days)” value (“The number … after X-radiation 17 (days)” for short) [1, 3] was 6. The “The number of days and survivals after X-radiation 18 (days)” value (“The number … after X-radiation 18 (days)” for short) [1, 3] was 6, the “The number of days and survivals after X-radiation 19 (days)” value (“The number … after X-radiation 19 (days)” for short) [1, 3] was 6 and the “The number of days and survivals after X-radiation 20 (days)” value [1, 3] was 6. The “The number of days and survivals after X-radiation 25 (days)” value [1, 3] was 5, the “The number of days and survivals after X-radiation 30 (days)” value (“The number … after X-radiation 30 (days)” for short) [1, 3] was 5 and the “The number … after X-radiation 10 (days)” value [1, 4] was 15. The “The number … after X-radiation 11 (days)” value [1, 4] was 15, the “The number … after X-radiation 12 (days)” value [1, 4] was 15 and the “The number … after X-radiation 13 (days)” value [1, 4] was 15. For the same compound, the “The number … after X-radiation 14 (days)” value [1, 4] was 15, the “The number … after X-radiation 15 (days)” value [1, 4] was 14 and the “The number … after X-radiation 16 (days)” value [1, 4] was 13. The “The number … after X-radiation 17 (days)” value [1, 4] was 11, the “The number … after X-radiation 18 (days)” value [1, 4] was 11 and the “The number … after X-radiation 19 (days)” value [1, 4] was 11. For the same compound, the “The number of days and survivals after X-radiation 20 (days)” value [1, 4] was 9, the “The number of days and survivals after X-radiation 25 (days)” value [1, 4] was 9 and the “The number … after X-radiation 30 (days)” value [1, 4] was 9. For the same compound, the animals survived ([2]; in 19 days, 100 µg/day s.c. 14 days from 2 days before irradiation, control four out of ten) was “ten out of ten”, the “The number of days and survivals after X-radiation 8 (days)” value ([2]; pre-administration 100 µg/day s.c., 14 days from 2 days before irradiation, day 8, 10 animals used) was 10 and the “The number of days and survivals after X-radiation 9 (days)” value ([2]; pre-administration 100 µg/day s.c., 14 days from 2 days before irradiation, day 9, 10 animals used) was 10. The “The number … after X-radiation 10 (days)” value ([2]; pre-administration 100 µg/day s.c., 14 days from 2 days before irradiation, day 10, 10 animals used) was 10, the “The number … after X-radiation 11 (days)” value ([2]; pre-administration 100 µg/day s.c., 14 days from 2 days before irradiation, day 11, 10 animals used) was 10 and the “The number … after X-radiation 12 (days)” value ([2]; pre-administration 100 µg/day s.c., 14 days from 2 days before irradiation, day 12, 10 animals used) was 10. For the same compound, the “The number … after X-radiation 13 (days)” value ([2]; pre-administration 100 µg/day s.c., 14 days from 2 days before irradiation, day 13, 10 animals used) was 10, the “The number … after X-radiation 14 (days)” value ([2]; pre-administration 100 µg/day s.c., 14 days from 2 days before irradiation, day 14, 10 animals used) was 10 and the “The number … after X-radiation 15 (days)” value ([2]; pre-administration 100 µg/day s.c., 14 days from 2 days before irradiation, day 15, 10 animals used) was 10. For the same compound, the “The number … after X-radiation 16 (days)” value ([2]; pre-administration 100 µg/day s.c., 14 days from 2 days before irradiation, day 16, 10 animals used) was 10, the “The number … after X-radiation 17 (days)” value ([2]; pre-administration 100 µg/day s.c., 14 days from 2 days before irradiation, day 17, 10 animals used) was 10 and the “The number … after X-radiation 18 (days)” value ([2]; pre-administration 100 µg/day s.c., 14 days from 2 days before irradiation, day 18, 10 animals used) was 10. The “The number … after X-radiation 19 (days)” value ([2]; pre-administration 100 µg/day s.c., 14 days from 2 days before irradiation, day 19, 10 animals used) was 10 and the “The number … after X-radiation 30 (days)” value ([2]; pre-administration 100 µg/day s.c., 14 days from 2 days before irradiation, day 30, 10 animals used) was 10.
